Common to all, as to test: NCI-60 cell line screen, 48 h
Test [1] concerns COLO 205 colon.
The subject of test [2] is HS 578T breast.
Test [3] concerns KM12 colon.
For test [4], the system named is SK-OV-3 ovarian.
Test [5] relates to SN12C renal.
The test system of test [6] is UACC-257 melanoma.
Test [7] deals with M14 melanoma.
For test [8], the system named is MCF7 breast.
The test system of test [9] is SF-539 CNS.
Test [10] has as its system RPMI-8226 leukemia.

“And” between values parts separate entries of the source, which are not always exact repeats. Equal entries are not always repeated.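 Step 1: Grow cells in 96-well plates. Step 2: Expose to compound for 48 hours at 5 concentrations. Step 3: Interpolate endpoints linearly; if unreached, use highest concentration. GI50: concentration for 50% inhibition of growth. Definition used: TGI = concentration required for complete inhibition of growth.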 A value given as a limit tells only on which side of the number the result lay.

Turning to `COc1cc(/C=C/c2cc(/C=C/c3ccc(O)c(OC)c3)n(-c3c(C)cccc3C)c(=O)n2)ccc1O`, the GI50 in test [1] was 2.07 µM; in [2] it was 0.817 µM; in test [3], 0.47 µM; in [4], 0.438 µM; in [5], 1.66 µM; in test [6], 1.62 µM. Moreover, the TGI in test [1] was 4.19 µM; in test [2], greater than 100 µM; in test [3], 3.63 µM; in test [4], 3.37 µM; in test [5] it was greater than 100 µM; in test [6] it was 6.54 µM.

Consider `C=C1C[C@](OC)([C@H](O)C(=O)N[C@@H](OC)[C@@H]2C[C@@H](O)C(C)(C)[C@@H](C[C@@H](COC)OC)O2)O[C@H](C)[C@@H]1C`, for which the GI50 in test [1] was 0.00123 µM; in test [2] it was 0.00136 µM; in [3], 0.000861 µM; in test [7] it was 0.00178 µM; in test [9], 0.000166 µM; in test [4] it was 0.00194 µM. In addition, the GI50 is 0.00174 µM in test [5] and 0.00211 µM in test [6]. For the same molecule, the TGI in test [1] is 0.00342 µM; in test [2] it was 0.0041 µM; in test [3], 0.00339 µM; in [7], 0.0041 µM; in test [8] it was 0.00145 µM; in test [9], 0.00213 µM. In addition, the results for the TGI in test [4], in test [5] and in [6] were 0.0078 µM, 0.00638 µM and 0.00885 µM, respectively.

In the case of `CCSCC(N)C(=O)O` (stereo unspecified), the TGI in test [1], in test [2], in [3], in [7], in test [8] and in test [10] was greater than 100 µM throughout. Also, the TGI in test [4], in [5] and in test [6] was greater than 100 µM throughout.

`N#CC(C(=O)/C(=N\Nc1nc(=S)[nH]n1N)C(C#N)c1ccc(Cl)cc1)c1ccc(Cl)cc1` (stereo unspecified): the TGI in test [1], in test [3], in test [7], in test [10], in test [9] and in test [4] was greater than 100 µM each time. The TGI in test [5] and in test [6] was greater than 100 µM throughout.

In the case of `CC[C@H]1CN2CCc3cc(OC)c(OC)cc3[C@@H]2C[C@@H]1C[C@H]1NCCc2cc(O)c(OC)cc21`, the TGI in test [1] is 0.0187 µM; in [2], 0.0539 µM; in test [7], 0.0222 µM and 0.015 µM; in test [10], 0.0779 µM and 0.0542 µM; in test [9] it was 0.0648 µM and < 0.0237 µM and 0.0511 µM; in test [5], 0.0787 µM and 0.552 µM. Further, the TGI in test [6] was 0.104 µM and 0.346 µM. In addition, the figures for the GI50 in test [2] and in test [7] were 0.0138 µM and 0.00787 µM, respectively.

For the molecule `CCOc1ccc([C@@H]2[C@@H](Oc3ccccc3)C(=O)N2c2cc(OC)c(OC)c(OC)c2)cc1`, the GI50 in [1] was 0.124 µM; in test [2] it was 0.0583 µM; in [3] it was 0.0525 µM; in test [7], 0.04 µM; in [8], 0.0431 µM; in test [10] it was 0.0486 µM. Also, the GI50 in test [4] was 0.227 µM; in test [5] it was 0.263 µM; in test [6] it was 86.4 µM. The TGI in test [1] was 0.506 µM; in [2], greater than 100 µM; in [3], greater than 100 µM; in test [7] it was greater than 100 µM; in test [8] it was greater than 100 µM; in test [10] it was greater than 100 µM. The TGI in test [4], in [5] and in [6] was greater than 100 µM throughout.

With `CCCCCCCC/C=C/CCCCCCCCC1=NCCN1CCO`, the GI50 is 3.76 µM in test [1]; 2.37 µM in [2]; 2.71 µM in test [3]; 2.16 µM in [7]; 1.77 µM in [8]; 1.64 µM in test [9]. The GI50 in test [4] was 16.1 µM; in test [5], 4.19 µM; in test [6] it was 11.8 µM. Also, the TGI in test [1] was found to be 13.9 µM; in [2], 7.68 µM; in [3], 7.64 µM; in test [7], 5.11 µM; in test [8], 4.02 µM; in [9], 3.02 µM. Also, the TGI in [4] was 33.6 µM; in test [5], 15.9 µM; in [6] it was 25 µM.

Take `COc1ccc(/C(=N/NC(=O)NN)C(c2ccc(OC)cc2)C2(O)CNc3c(Cl)cc(Cl)cc32)cc1` (stereo unspecified): the TGI in test [1], in [3], in test [7], in test [10], in [9] and in [4] was greater than 100 µM in each case. The TGI in test [5] and in [6] was greater than 100 µM each time.

In the case of `CC(C)(C)NN=C1C(C)(C)C(=NNC(C)(C)C)C1(C)C`, the TGI in test [1], in test [3], in test [7], in [10], in test [9] and in test [4] was greater than 100 µM each time. For the same molecule, the TGI in test [5] and in [6] was greater than 100 µM each time.

Regarding `N#Cc1c(-c2ccc(Cl)cc2)n(O)c2ccccc12`, the GI50 in test [1] is 13.4 µM; in test [3], 2.17 µM; in [7] it was 0.803 µM; in test [8], 2.67 µM; in test [10] it was 1.6 µM; in test [9], 2.58 µM. Besides, the GI50 in test [4] was 2.17 µM; in [5], 3.07 µM; in [6], 2.27 µM. The TGI in [1] is 30.7 µM; in test [3], 11.7 µM; in test [7], 7.36 µM; in test [8], greater than 100 µM; in test [10], 6.48 µM; in test [9] it was 9.83 µM. The TGI in [4] is 5.16 µM; in test [5], greater than 100 µM; in test [6], 6.31 µM.

`Cc1ccc(NC(=O)c2cccc([N+](=O)[O-])c2O)c([N+](=O)[O-])c1`: the TGI in test [1] was 38.6 µM; in test [3], 23 µM; in [7] it was 30.9 µM; in [10], greater than 100 µM; in [9], 34.3 µM; in [4] it was 57.8 µM. Moreover, the TGI in [5] came to 53.8 µM; in [6], 33.4 µM.

As to `Cc1cc(N(CCC#N)S(C)(=O)=O)ccc1C=O`, the TGI in test [1], in test [3], in [7], in test [10], in test [9] and in [4] was greater than 100 µM each time. The TGI in test [5] and in test [6] was greater than 100 µM each time.

Regarding `CC1C[C@H](OC(N)=O)C(C)CC1=O` (stereo partly specified), the TGI in [1], in test [3], in test [7], in test [10], in test [9] and in test [4] was greater than 100 µM in each case. Further, the TGI in [5] and in [6] was greater than 100 µM in each case.

Consider `CN(C)c1ccc(N=Cc2c([O-])ccc3ccccc23)cc1.[C-]#[O+].[C-]#[O+].[Ir]`, for which the GI50 in [1] was 17.5 µM; in [3] it was 18 µM; in [7], 20.7 µM; in test [10] it was 23.2 µM; in [9], 19.9 µM; in test [4], 34.4 µM. Also, the figures for the GI50 in test [5] and in test [6] were 19 µM and 16.3 µM, respectively. Moreover, the TGI in test [1] was 33.9 µM; in test [3] it was 37.7 µM; in [7] it was 46.1 µM; in test [10] it was greater than 100 µM; in test [9], 40.7 µM; in test [4], greater than 100 µM. Besides, the TGI worked out at 35.5 µM in test [5] and 37.1 µM in test [6].

Turning to `CCCN(CCCC(NC(C)=O)C(=O)NCc1ccccc1)C(=O)NC` (stereo unspecified), the TGI in test [1], in test [3], in test [7], in test [10], in test [9] and in test [4] was greater than 100 µM each time. Moreover, the TGI in test [5] and in test [6] was greater than 100 µM throughout.

As to `CN(C)c1ccc(C(=C2C=CC(=[N+](C)C)C=C2)c2ccc(N(C)C)cc2)cc1` (tested in a mixture with another compound), the GI50 in [1] is 0.0232 µM; in test [2], 0.0479 µM; in test [3], 0.0379 µM; in test [7] it was 0.088 µM; in test [10], 0.04 µM; in [9] it was 0.0643 µM. For the same molecule, the GI50 in [6] is 0.211 µM. The TGI in test [1] is 0.0519 µM; in test [2], 1.9 µM; in [3] it was 0.172 µM; in [9] it was 0.748 µM; in [4], 0.933 µM; in test [6], 1.3 µM.

`COc1ccc2oc3c4c2c1CCC4CCC3=O` (stereo unspecified): the TGI in test [1], in [3], in test [7], in test [10], in test [9] and in test [4] was greater than 100 µM in each case. Besides, the TGI in [5] was greater than 100 µM; in [6] it was 31.2 µM.

On to `N/N=C1\C(=O)N(C2CCCCC2)C(=O)C1C(=O)NC1CCCCC1` (stereo unspecified), for which the TGI in test [1], in test [3], in test [7], in test [10], in test [9] and in test [4] was greater than 100 µM in each case. Moreover, the TGI is 93.6 µM in test [5] and greater than 100 µM in test [6].

Consider `CC1=CC(=O)CCC2(C)C1CC[C@@H]2OC=O` (stereo partly specified), for which the TGI in [1], in test [3], in test [7], in test [10], in test [9] and in test [4] was greater than 100 µM in each case. Further, the TGI in [5] and in test [6] was greater than 100 µM each time.

`Cc1cc2c(=O)n(-c3ccc(F)cc3)c(C)nc2c(C(=O)O)c1C`: the TGI in test [1], in [3], in [7], in test [10], in test [9] and in test [4] was greater than 100 µM throughout. Also, the TGI in test [5] and in [6] was greater than 100 µM each time.

As to `O=C(OCc1ccccc1)N1CCN(/[N+]([O-])=N/Oc2ccc([N+](=O)[O-])cc2[N+](=O)[O-])CC1`, the GI50 is 4.35 µM in test [1]; 32.4 µM in test [2]; 8.66 µM in [3]; 2.84 µM in [8]; 2.23 µM in [10]; 2.81 µM in test [9]. Besides, the GI50 in test [5] was 11.5 µM; in test [6] it was 19.5 µM. Further, the TGI is 18.6 µM in test [1]; 97.6 µM in [2]; 24.2 µM in test [3]; 8.87 µM in [8]; 6.1 µM in test [10]; 7.11 µM in test [9]. Also, the TGI in test [5] was found to be 30.1 µM; in test [6], 36.5 µM.

With `CCOC(=O)C(=O)Nc1c(F)cc(F)cc1Br`, the TGI in test [1], in [3], in [7], in [10], in test [9] and in test [4] was greater than 100 µM throughout. In addition, the TGI in [5] and in [6] was greater than 100 µM each time.

As for `CCOC(=O)N1CCc2cc(OC)c(OC)c3c2C1CC3=O` (stereo unspecified), the TGI in [1], in [3], in test [7], in test [10], in [9] and in test [4] was greater than 100 µM in each case. Further, the TGI in test [5] and in test [6] was greater than 100 µM in each case.

On to `CN1C2(c3ccccc3)c3c(-c4ccccc4)sc(-c4ccccc4)c3C1(c1ccccc1)C1C(=O)N(c3ccccc3)C(=O)C12` (stereo unspecified), for which the TGI in test [1], in [3], in test [7], in test [10], in [9] and in test [4] was greater than 100 µM throughout. The TGI in [5] and in test [6] was greater than 100 µM each time.

For `C[C@]12CCC[C@H](Cl)C1(O)C[C@H](C(=O)O)CC2` (stereo partly specified), the TGI in test [1], in [3], in test [7], in test [10], in test [9] and in test [4] was greater than 100 µM each time. The TGI in test [5] and in test [6] was greater than 100 µM in each case.

These data come from PubChem BioAssay (NCI).
